Legend:
[1] = biological target: Kelch domain of human KEAP1 (321-624 aa) (Homo sapiens (Human), UniProt Q14145); assay: KEAP1 KELCH ThermoFluor binding assay; conditions: KEAP Kelch […], 1,8-ANS, pH 7.0, average of results obtained, read-out: Tf Kd;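 further: Ligand-induced melting temperature shift of E. coli-expressed KEAP1 Kelch protein, Kd estimated from concentration-response curves of ΔTm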
[2] = system: Glo-Response ARE-luc2P HEK293 cell line; assay: ARE luciferase reporter cell-based assay; conditions: Homo sapiens, HEK293, 24 h, average of results obtained;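 further: luciferase signal tracks Nrf2 activation of the ARE once compounds disrupt KEAP1-Nrf2 binding, read with One-Glo reagent, DMSO serving as low control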

Kelch domain of human KEAP1 (321-624 aa), sequence (Q14145 321-624): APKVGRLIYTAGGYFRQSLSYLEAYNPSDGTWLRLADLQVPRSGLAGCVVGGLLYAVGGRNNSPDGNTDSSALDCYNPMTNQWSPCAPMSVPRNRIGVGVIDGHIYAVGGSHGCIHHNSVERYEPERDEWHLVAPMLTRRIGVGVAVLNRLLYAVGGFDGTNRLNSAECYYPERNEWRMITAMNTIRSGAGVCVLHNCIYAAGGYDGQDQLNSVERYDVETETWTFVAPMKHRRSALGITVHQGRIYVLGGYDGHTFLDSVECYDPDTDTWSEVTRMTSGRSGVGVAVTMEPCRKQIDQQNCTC

Structure (SMILES) | Kd [1] [nM] | EC50 [2] [nM]
Cc1cnc2c(c1)S(=O)(=O)N(Cc1cc([C@@H](c3ccn4c(C(F)(F)F)nnc4c3C)C(C)(C)C(=O)O)ncc1C)CC1(CC1)O2 (single isomer, unassigned) [Example 588, (*S)-2,2-Dimethyl-3-(8-methyl-3-(trifluoromethyl)-[1,2,4]triazolo[4,3-a]pyridin-7-yl)-3-(5-methyl-4-((8′-methyl-1′,1′-dioxidospiro[cyclopropane-1,4′-pyrido[2,3-b][1,4,5]oxathiazepin]-2′(3′H)-yl)methyl)pyridin-2-yl)propanoic Acid] | < 1 | 7.64
Cc1cnc2c(c1)S(=O)(=O)N(Cc1cc([C@H](c3ccn4c(C(F)(F)F)nnc4c3C)C(C)(C)C(=O)O)ncc1C)CC1(CC1)O2 (single isomer, unassigned) [Example 589, (*R)-2,2-Dimethyl-3-(8-methyl-3-(trifluoromethyl)-[1,2,4]triazolo[4,3-a]pyridin-7-yl)-3-(5-methyl-4-((8′-methyl-1′,1′-dioxidospiro[cyclopropane-1,4′-pyrido[2,3-b][1,4,5]oxathiazepin]-2′(3′H)-yl)methyl)pyridin-2-yl)propanoic Acid] | 1450 | 1970
Cc1cnc([C@@H](c2ccn3c(C(F)(F)F)nnc3c2C)C(C)(C)C(=O)O)cc1CN1CC2(CC2)Oc2nc(OCCN3CCCC3)c(C)cc2S1(=O)=O (single isomer, unassigned) [Example 590, (*S)-2,2-Dimethyl-3-(8-methyl-3-(trifluoromethyl)-[1,2,4]triazolo[4,3-a]pyridin-7-yl)-3-(5-methyl-4-((8′-methyl-1′,1′-dioxido-7′-(2-(pyrrolidin-1-yl)ethoxy)spiro[cyclopropane-1,4′-pyrido[2,3-b][1,4,5]oxathiazepin]-2′(3′H)-yl)methyl)pyridin-2-yl)propanoic Acid] | < 1 | 33.2
Cc1cnc2c(c1)S(=O)(=O)N(Cc1cc([C@@H](c3ccn4c(C(F)(F)F)nnc4c3C)C(C)(C)C(=O)O)ncc1C)CC1(CCOCC1)O2 (single isomer, unassigned) [Example 591, (*S)-2,2-Dimethyl-3-(8-methyl-3-(trifluoromethyl)-[1,2,4]triazolo[4,3-a]pyridin-7-yl)-3-(5-methyl-4-((8′-methyl-1′,1′-dioxido-2,3,5,6-tetrahydrospiro[pyran-4,4′-pyrido[2,3-b][1,4,5]oxathiazepin]-2′(3′H)-yl)methyl)pyridin-2-yl)propanoic Acid] | < 1 | 26.1
Cc1cnc([C@@H](c2ccn3c(C(F)(F)F)nnc3c2C)C(C)(C)C(=O)O)cc1CN1CC2(CC2)Oc2nc(OCCN3CCCCC3)c(C)cc2S1(=O)=O (single isomer, unassigned) [Example 592, (*S)-2,2-Dimethyl-3-(8-methyl-3-(trifluoromethyl)-[1,2,4]triazolo[4,3-a]pyridin-7-yl)-3-(5-methyl-4-((8′-methyl-1′,1′-dioxido-7′-(2-(piperidin-1-yl)ethoxy)spiro[cyclopropane-1,4′-pyrido[2,3-b][1,4,5]oxathiazepin]-2′(3′H)-yl)methyl)pyridin-2-yl)propanoic Acid] | < 1 | 17.6
Cc1cnc([C@@H](c2ccn3c(C(F)(F)F)nnc3c2C)C(C)(C)C(=O)O)cc1CN1CC2(CCOCC2)Oc2nc(OCCN3CCCC3)c(C)cc2S1(=O)=O (single isomer, unassigned) [Example 593, (*S)-2,2-Dimethyl-3-(8-methyl-3-(trifluoromethyl)-[1,2,4]triazolo[4,3-a]pyridin-7-yl)-3-(5-methyl-4-((8′-methyl-1′,1′-dioxido-7′-(2-(pyrrolidin-1-yl)ethoxy)-2,3,5,6-tetrahydrospiro[pyran-4,4′-pyrido[2,3-b][1,4,5]oxathiazepin]-2′(3′H)-yl)methyl)pyridin-2-yl)propanoic Acid] | < 1 | 89.7
Cc1ccc([C@@H](c2ccn3c(C(F)(F)F)nnc3c2C)C(C)(C)C(=O)O)cc1CN1CC2(CC2)Oc2nc(OCCN3CCCC3)ccc2S1(=O)=O (single isomer, unassigned) [Example 598, (*S)-3-(3-((1′,1′-dioxido-7′-(2-(pyrrolidine-1-yl)ethoxy)spiro[cyclopropane-1,4′-pyrido[2,3-b][1,4,5]oxathiazepin]-2′(3′H)-yl)methyl)-4-methylphenyl)-2,2-dimethyl-3-(8-methyl-3-(trifluoromethyl)-[1,2,4]triazolo[4,3-a]pyridine-7-yl)propanoic Acid] | < 1 | 8.85

Now from value to compound, other results behind:

Kd [1] [nM] | Structure (SMILES) | EC50 [2] [nM]
< 1 | CCn1nnc2c(C)c([C@H](c3cc(CN4CC5(CC5)Oc5ncc(C)cc5S4(=O)=O)c(C)cn3)C(C)(C)C(=O)O)ccc21 (single isomer, unassigned) [Example 594, (*S)-3-(1-Ethyl-4-methyl-1H-benzo[d][1,2,3]triazol-5-yl)-2,2-dimethyl-3-(5-methyl-4-((8′-methyl-1′,1′-dioxidospiro[cyclopropane-1,4′-pyrido[2,3-b][1,4,5]oxathiazepin]-2′(3′H)-yl)methyl)pyridin-2-yl)propanoic Acid] | 3.3
4.28 | CCn1nnc2c(C)c([C@H](c3cc(CN4CC5(CNC5)Oc5ncc(C)cc5S4(=O)=O)c(C)cn3)C(C)(C)C(=O)O)ccc21 (single isomer, unassigned) [Example 595, (*S)-3-(1-Ethyl-4-methyl-1H-benzo[d][1,2,3]triazol-5-yl)-2,2-dimethyl-3-(5-methyl-4-((8′-methyl-1′,1′-dioxidospiro[azetidine-3,4′-pyrido[2,3-b][1,4,5]oxathiazepin]-2′(3′H)-yl)methyl)pyridin-2-yl)propanoic Acid] | 139
< 1 | Cc1ccc([C@@H](c2ccn3c(C(F)(F)F)nnc3c2C)C(C)(C)C(=O)O)cc1CN1CC2(CC2)Oc2nc(OCCN3CC(F)C3)c(C)cc2S1(=O)=O (single isomer, unassigned) [Example 596, (*S)-3-(3-((7′-(2-(3-fluoroazetidin-1-yl)ethoxy)-8′-methyl-1′,1′-dioxidospiro[cyclopropane-1,4′-pyrido[2,3-b][1,4,5]oxathiazepin]-2′(3′H)-yl)methyl)-4-methylphenyl)-2,2-dimethyl-3-(8-methyl-3-(trifluoromethyl)-[1,2,4]triazolo[4,3-a]pyridine-7-yl)propanoic Acid] | 3.08
< 1 | Cc1ccc([C@@H](c2ccn3c(C(F)(F)F)nnc3c2C)C(C)(C)C(=O)O)cc1CN1CC2(CC2)Oc2nc(OCCN3CCOCC3)c(C)cc2S1(=O)=O (single isomer, unassigned) [Example 597, (*S)-2,2-dimethyl-3-(4-methyl-3-((8′-methyl-7′-(2-morpholinoethoxy)-1′,1′-dioxidospiro[cyclopropane-1,4′-pyrido[2,3-b][1,4,5]oxathiazepin]-2′,(3′H)-yl)methyl)phenyl)-3-(8-methyl-3-(trifluoromethyl)-[1,2,4]triazolo[4,3-a]pyridine-7-yl)propanoic Acid] | 2.79
< 1 | Cc1ccc([C@@H](c2ccn3c(C(F)(F)F)nnc3c2C)C(C)(C)C(=O)O)cc1CN1CC2(CCOCC2)Oc2nc(CCC(N)=O)ccc2S1(=O)=O (single isomer, unassigned) [Example 599, (*S)-3-(3-((7′-(3-amino-3-oxopropyl)-1′,1′-dioxido-2,3,5,6-tetrahydrospiro[pyran-4,4′-pyrido[2,3-b][1,4,5]oxathiazepin]-2′(3′H)-yl)methyl)-4-methylphenyl)-2,2-dimethyl-3-(8-methyl-3-(trifluoromethyl)-[1,2,4]triazolo[4,3-a]pyridine-7-yl)propanoic Acid] | 246
< 1 | Cc1ccc([C@@H](c2ccn3c(C(F)(F)F)nnc3c2C)C(C)(C)C(=O)O)cc1CN1CC2(CCOCC2)Oc2nc(O[C@H](C)CN3CCCCC3)c(C)cc2S1(=O)=O (single isomer, unassigned) [Example 601, (*S)-2,2-Dimethyl-3-(4-methyl-3-((8′-methyl-1′,1′-dioxido-7′-(((*R)-1-(piperidin-1-yl)propan-2-yl)oxy)-2,3,5,6-tetrahydrospiro[pyran-4,4′-pyrido[2,3-b][1,4,5]oxathiazepin]-2′,(3′H)-yl)methyl)phenyl)-3-(8-methyl-3-(trifluoromethyl)-[1,2,4]triazolo[4,3-a]pyridine-7-yl)propanoic Acid] | 4.79
< 1 | Cc1ccc([C@@H](c2ccn3c(C(F)(F)F)nnc3c2C)C(C)(C)C(=O)O)cc1CN1CC2(CCOCC2)Oc2nc(O[C@@H](C)CN3CCCCC3)c(C)cc2S1(=O)=O (single isomer, unassigned) [Example 602, (*S)-2,2-Dimethyl-3-(4-methyl-3-((8′-methyl-1′,1′-dioxido-7′-(((*S)-1-(piperidin-1-yl)propan-2-yl)oxy)-2,3,5,6-tetrahydrospiro[pyran-4,4′-pyrido[2,3-b][1,4,5]oxathiazepin]-2′,(3′H)-yl)methyl)phenyl)-3-(8-methyl-3-(trifluoromethyl)-[1,2,4]triazolo[4,3-a]pyridine-7-yl)propanoic Acid] | 2.72
< 1 | Cc1ccc([C@H](c2ccn3c(C(F)(F)F)nnc3c2C)C(C)(C)C(=O)O)cc1CN1CC2(CCOCC2)Oc2nc(N[C@H](C)CN3CCCCC3)c(C)cc2S1(=O)=O (single isomer, unassigned) [Example 603, (*R)-2,2-Dimethyl-3-(4-methyl-3-((8′-methyl-1′,1′-dioxido-7′-(((*R)-1-(piperidin-1-yl)propan-2-yl)amino)-2,3,5,6-tetrahydrospiro[pyran-4,4′-pyrido[2,3-b][1,4,5]oxathiazepin]-2′(3′H)-yl)methyl)phenyl)-3-(8-methyl-3-(trifluoromethyl)-[1,2,4]triazolo[4,3-a]pyridine-7-yl)propanoic Acid] | 55

— patent US10947252B2, “Inhibitors of KEAP1-Nrf2 protein-protein interaction” (Janssen Pharmaceutica NV, priority 2018, dated 2021)
